Results on 13 compounds are retold here after ChEMBL document CHEMBL4020764, “Phytochemical and cytotoxic studies on the leaves of Calotropis gigantea” (Bioorg Med Chem Lett, 2017).

Activity calls are given as the source filed them. The calls are words filed in the database; no cut-off is given here. Some results are limits rather than exact numbers.

Assay [1] relates to PANC-1. The assay is described as follows: Cytotoxicity against human PANC1 cells after 72 hrs by WST8 assay. It is filed as functional, cell-based. The settings on record: PANC-1, 72 h.
The test system of assay [2] is PANC-1. Description: Induction of morphological changes in human PANC1 cells assessed as cell rounding at 5 to 10 uM after 72 hrs by ethidium bromide/acridine orange staining based fluorescent microscopic analysis. Type of assay: functional.
The test system of assay [3] is PANC-1. The assay is described as follows: Induction of morphological changes in human PANC1 cells assessed as disruption of cellular organelles at 5 to 10 uM after 72 hrs by ethidium bromide/acridine orange staining based fluorescent microscopic analysis. Type of assay: functional, cell-based.
For assay [4], the system named is PANC-1. The assay is described as follows: Induction of morphological changes in human PANC1 cells assessed as increase in EB positive cells at 5 to 10 uM after 72 hrs by ethidium bromide/acridine orange staining based fluorescent microscopic analysis. It is filed as functional, cell-based.
Assay [5] concerns PANC-1. Description: Inhibition of colony formation in human PANC1 cells after 10 days by crystal violet staining based assay. It is filed as functional, cell-based.
In assay [6] the test system is PANC-1. Description: Growth inhibition of human PANC1 cells after 72 hrs by WST8 assay. Type of assay: functional. The conditions noted are these: PANC-1, 72 h. Background: Formazan colour is commonly taken as a measure of viable cells.
The test system of assay [7] is PANC-1. The assay is described as follows: Cytotoxicity against human PANC1 cells at >25 uM measured after 72 hrs by WST8 assay. It is filed as functional, cell-based.

As for `COc1cc([C@H]2O[C@@H](OC)[C@H]3[C@@H]2CO[C@@H]3c2ccc(O)c(OC)c2)ccc1O`, the IC50 with PANC-1 [1] is 3.7 µM. Moreover, the result in the assay with PANC-1 [2], in the assay on PANC-1 [3] and with PANC-1 [4] was Active. In addition, in the assay on PANC-1 [5], the inhibition result is “Dose-dependent effect”.
With `CO[C@@H]1C[C@@H](OCc2ccc(C=O)o2)O[C@@H](C)[C@@H]1O`, in the assay with PANC-1 [1], the IC50 is greater than 100 µM.
Same read-out and setting: the figure for `CO[C@H]1C[C@@H](OCc2ccc(C=O)o2)O[C@@H]1[C@@H](C)O` is greater than 100 µM; for `COc1cc([C@H]2OC[C@H]3[C@@H]2CO[C@@H]3c2ccc(O)c(OC)c2)ccc1O` it is 37.5 µM; for `CC(=O)[C@H]1CC[C@H]2[C@@H]3C=CC4=CC(=O)CC[C@]4(C)[C@H]3CC[C@]12C` it is 40 µM.
Consider `Nc1ccn([C@@H]2O[C@H](CO)[C@@H](O)C2(F)F)c(=O)n1` [GEMCITABINE], for which the GI50 in the assay on PANC-1 [6] amounted to 5.8 µM. In the assay with PANC-1 [7], the result was Active.
`O=Cc1ccc(CO)o1` [AES-103] returned a 50% inhibitory concentration (IC50) in the assay on PANC-1 [1] greater than 100 µM.
As for `CC(=O)[C@H]1CC[C@@]2(O)[C@@H]3C=CC4=CC(=O)CC[C@]4(C)[C@H]3CC[C@]12C`, inhibition in the assay with PANC-1 [1] was half-maximal at 79.3 µM (IC50). This counts as double-digit micromolar.
In the case of `COc1cc(C(=O)OC[C@H]2O[C@@H](Oc3ccc([C@H]4OC[C@H]5[C@@H]4CO[C@@H]5c4ccc(O)c(OC)c4)cc3OC)[C@H](O)[C@@H](O)[C@@H]2O)ccc1O`, the IC50 with PANC-1 [1] was found to be 63.4 µM.
Regarding `COc1cc([C@H]2OC[C@H]3[C@@H]2CO[C@@H]3c2cc(OC)c(O)c(OC)c2)cc(OC)c1O` [SYRINGARESINOL], in the assay on PANC-1 [1], the IC50 was 61.1 µM.
Turning to `O=C(/C=C/c1ccc(O)cc1)c1ccc(O)cc1O` [ISOLIQUIRITIGENIN], the midpoint of inhibition in the assay on PANC-1 [1], the IC50, lay at 3.3 µM.
Same read-out and setting: with `Cc1ncccc1O` the figure was greater than 100 µM.
In the assay on PANC-1 [1], `CC(=O)[C@]1(O)CC[C@]2(O)[C@@H]3CC=C4C[C@@H](O)CC[C@]4(C)[C@H]3C[C@@H](OC(=O)c3ccccc3)[C@]12C` displayed an IC50 of 18.7 µM.

The IC50 is the concentration that inhibits the measured activity by half. Lower therefore signals greater potency in that assay. Usually GI50 stands for the concentration giving 50% growth inhibition. Low values mean more potent growth inhibition, high ones less potent growth inhibition.
